Series [1] relates to tomato plants. Briefly: Controlled lab bioassay of transpiration under moderate heat stress. It is filed as in vivo. As for the experimental part:
FIG. 11 denotes mean transpiration rates of tomato plants treated with stearyl alcohol at 72 hours after application. Bars represent standard errors. A controlled lab bioassay was run to evaluate the ability of stearyl alcohol to decrease transpiration of tomato plants under moderate heat stress. stearyl alcohol was applied at a 6 mL/L concentration in water to five tomato plants at the 6-8 leaf stage growing in 8.9 cm square pots, using a research track sprayer. Sombrero, a commercially available calcium carbonate plant sunscreen product, was applied as a positive control and deionized water as a negative control. The application rate was equivalent to 150 liters of diluted product per acre. After sealing pots with plastic bags to prevent water loss through evaporation from the soil surface and measuring total pot and plant weight, the plants were placed in randomized complete blocks in a growth chamber set to 26° C. with 50% relative humidity, x 3000 μW/cm2 illumination for 14 hours per day. Sealed pots and plants were again weighed at 24, 48 and 72 hours after application. Differences in weight were attributed to water loss through transpiration. Plant mass was then plotted against time, and the slope of the linear regression was taken to be the rate of water loss in Average surface area of the leaves (cm2) was calculated using a digital leaf area scanner. Mean transpiration rate was then calculated as: Rate=Water Loss Rate (μg/sec)/Total Leaf Area (cm2).

A short description of series [2]: Percent light transmittance by spectrophotometer. In kind it is physicochemical. The following applies: depending on the concentration of material applied. As for the experimental part: FIG. 8 denotes percent light transmission (% T) of wavelengths between 200 and 750 nm. UV-B radiation occurs at 280-315 nm (dashed green lines), while photosynthetically active radiation occurs between 400-700 nm (solid green lines). The rows of symbols correspond to 12 mL/L concentrations of formulated stearyl alcohol (triangles) and two alternate formulations (squares, diamonds). Water (circles) results in 100% light transmittance. To test the hypothesis that stearyl alcohol reduces transmission of light radiation, particularly within the UV-B spectrum, percent (%) transmittance were measured using a spectrophotometer. stearyl alcohol was diluted to 1/100th of the field application rate (6 mL/L active ingredient) for both visible and non-visible UV light spectra. Visible light spectral analysis was conducted using a 96 well plate while UV transparent cuvettes and 96 well plates were utilized to analyze the percent light transmittance at the UV spectrum. For all spectrophotometer light transmittance screenings, both a water reference and plate blank were used to calibrate the ratio of light energy transmitted through the formulation samples to the energy transmitted through the reference blank. Treatments were replicated three times.

Series [3] has as its system wine (Merlot) and table (Princess) grape varieties. Briefly: Solar radiation damage in Chilean vineyards. In kind it is in vivo. The settings on record: 3, 6 or 9 mL/L in 100 L of water; at harvest. An excerpt:
FIG. 13 denotes number of sun-damaged bunches of Merlot grape. Bars represent standard error for total number of damaged bunches. Letters are the same for each category of damage and represent significant differences according to a Tukey test for separation of means with α=0.05.
FIG. 14 denotes number of sun-damaged bunches of Princesa table grape. Bars represent standard error for number of damaged bunches. Letters represent significant differences in number of damaged bunches according to a Tukey test for separation of means with α=0.05.
To evaluate for protection from excess or harmful solar radiation, stearyl alcohol was applied by Duarte and Associates in established Chilean vineyards planted with wine (Merlot) and table (Princess) grape varieties. Plants were treated in 2014 with 3, 6 or 9 mL/L in 100 L of water when berries reached 11 mm in diameter and at two week intervals over the subsequent six weeks. Five contiguous vines were sprayed per treatment; treatments were replicated 3 times and arranged in a random complete block design. At harvest, bunches were counted per plant, yields assessed, sugar content measured and solar radiation damage rated.

Series [4] deals with soybean leaves. Briefly: Leaf temperature and gas exchange of attached soybean leaves in a field. It is filed as in vivo. The following applies: 1% v/v DI water solution on upper leaf surface; SE±0.31; P-value<0.02, paired t-test. An excerpt:
FIG. 9 denotes a comparison of the temperature depression caused by stearyl alcohol application to leaves. Points represent temperatures measured at 9 time intervals on four pairs of leaves. FIG. 10 denotes a comparison of photosynthetic capacity of treated leaves, control leaves and leaves prior to stearyl alcohol application. Photosynthetic capacity variation is interpreted as a treatment having higher/lower photosynthesis values than the control for the same stomatal conductance To test the hypothesis that stearyl alcohol reduces internal leaf temperatures while not adversely affecting photosynthesis, stearyl alcohol was applied to eight attached soybean leaves selected from plants growing in a field. The leaves were spaced in blocks so that two leaves could be compared to each other as control/treatment pairs. The leaves were placed in fishing line, wood and metal holders that restrained the leaves in an exposed and horizontal orientation (to prevent leaf orientation changes affecting the leaf energy balance and temperature). Leaf temperature was measured with an IR thermometer three times before and six times after application of a 1% v/v DI water solution of stearyl alcohol to the upper leaf surface, applied using a household spray bottle. Full coverage of the leaf surface was achieved and excess water shaken off. Leaves were dry within half an hour. […]

Series [5] concerns almond. Briefly: Almond orchard field trial, yield.

In series [1] (6 mL/L stearyl alcohol, 26° C., 50% relative humidity, up to 72 hours after application, untreated control 6.68), `CCCCCCCCCCCCCCCCCCO` [stearyl alcohol] showed a mean transpiration rate of 5.33 μg/cm2/sec. The “average reductions in leaf temperature” value in series [1] (tomato plants, growth chamber 26° C.) is reported as 1.50 (±0.35) ° C. The reductions in transpiration result in series [1] (vs untreated control) is “about 20%”. For the same molecule, the “reductions of light in the photosynthetically active radiation spectrum” value in series [2] (400-700 nm) was 10-15%. Also, the “reductions of transmitted UV-B radiation” value in series [2] (UV-B 280-315 nm) is reported as 20-50%. Moreover, in series [3], the “damaged bunches, table grape (Princess)” value is listed as “fewer damaged bunches” and the “damaged bunches, wine grape (Merlot)” value was “fewer damaged bunches”. Further, the “apparent depression in leaf temperatures after application” value in series [4] came out at 1.5 degree C. Moreover, the “crop safety in pre-harvest field assessments” value in series [5] (almond orchard, six assessment dates) is reported as “confirmed the crop safety”. Further, in series [5] (stearyl alcohol 6 ml/L three applications, Surround 50 lbs per acre, untreated 2.8 tons/A), the almond yields stood at 3.2 tons/A.

(Values after patent US11707062B2, “Formulation of stearyl alcohol” (PRO FARM GROUP, INC., priority 2017, dated 2023).)
